Counter-ions that a name gives are not always drawn.
Tested on: serotonin (5-hydroxytryptamine (5HT)) uptake
Experiment: [^3 H]-Serotonin Uptake in Rat Whole Brain and Hypothalamic Synaptosomes
Format: biochemical, rat (male Wistar)
Details: [^3 H]-5HT 50 nM, 5 minutes, 37° C., log probit analysis
Method: [^3 H]-Serotonin Uptake in Rat Whole Brain and Hypothalamic Synaptosomes
This activity is determined in an assay which measures [^3 H]-serotoninuptake in rat whole brain and hypothalamic synaptosomes. The assay described below is used as a biochemical screen for potential antidepressants which block serotonin (5-hydroxytryptamine (5HT)) uptake.
Male CR Wistar rats (100-125 g)
1. Krebs-Henseleit Bicarbonate Buffer, pH 7.4 (KHBB):
Prepare a 1 liter batch containing the following salts.
Prior to use add to 200 ml, per assay:
The batch is aerated for 60 minutes with 95% 02 /5% CO2, the pH is checked to insure it is at 7.4±0.1, then add bovine serum albumin (Sigma cat# A-7906) 1 mg/ml.
Make a 4 liter batch, containing the following salts:
3. Sucrose solution: 0.32M sucrose containing 5 mM HEPES and 0.1 mM EDTA; pH to 7.3 using Tris base.
4. A 0.1 mM stock solution of serotonin creatinine SO4 is made up in 0.01N HCl. This is used to dilute the specific activity of the radiolabeled 5HT.
5. 5-[1,2-^3 H(N)]-Hydroxytryptamine creatinine sulfate (serotonin), specific activity 20-30 Ci/mmol, is used.
The final desired concentration of [^3 H]-5HT in the assay is 50 nM. The dilution factor is 0.8. The KHBB is made up to contain 62.5 nM of [^3 H]-5HT.
6. For most assays, a 0.5 mM stock solution of the test compound is made up initially in either 10 μl of glacial acetic acid, 100 μl DMSO or 10 μl of the recrystallization solvent, to which is added approximately 10 ml of distilled water. Compounds are initially screened in duplicate at 3 concentrations (10^-8, 10^-7 and 10^-6 M) made up in water.
The Percoll method for preparing synaptosomes has been modified from Nagy, A., Delgado-Escueta, A. V. J. Neurochem. 43, 1114 (1984) and Dunkley, P. R., Jarvie, R. E., Heath, J. W., Kidd, G. J., Rostas, J. A. P. Brain Research 372, 115 (1986). Male Wistar rats are decapitated and the brain rapidly removed. Whole brain (minus cerebellum) is weighed and homogenized in 15 volumes of ice cold Sucrose solution using a Potter-Elvejhem homogenizer. The following procedures are performed on ice. Homogenization should be done with 4-5 up and down strokes at medium speeds (setting 4.5 to 5) to minimize synaptosome lysis. The homogenate is centrifuged at 1000 g (3000 rpm, Sorvall SS-34 rotor) for 10 minutes at 0°-4° C. The supernatant is removed and approximately 10 ml per tube is carefully layered onto a discontinuous Percoll (Sigma cat# P-1644) gradient: 21% Percoll in Sucrose solution at the bottom (15 ml per tube) and 10% Percoll in the middle ( 10 ml; colored with a few drops of phenol red for visibility).
The Percoll gradient tubes are carefully placed into a Beckman SW-28 swinging bucket rotor and spun in a Beckman XL90 ultracentrifuge using the following program: speed, 11,000 rpm (15,000 g) for 30 minutes at 4° C.; slow acceleration and deceleration (acceleration setting 9; deceleration setting 3). Tubes are carefully removed, and the top layer and the top part of the middle (red) layer are discarded using a pasteur pipette. The synaptosomes are located in the white fluffy band at the interface between the 10% and 21% Percoll layers. This is carefully removed, placed in a centriguge tube, diluted with KHBB and spun at 21,000 g (13,000 rpm, Sorvall SS-34 rotor). The pellet (synaptosomes) is resuspended in KHBB (10 vol per gram original brain wet weight; 1 brain minus cerebellum weighs approximately 1.2 g; 2.5 brains are needed per typical assay).
200 μl of the tissue suspension are added to each of 24 tubes (at a time) containing the 20 μl of vehicle or drug on ice. Three minutes later, 800 μl of KHBB containing [^3 H]-5HT are added, and the tubes are vortexed. The rack containing the 24 tubes is moved from the ice bath to a water bath set at 37° C. The tubes are incubated for 5 minutes under 95% O2 /5% CO2.

SMILES: Cc1ccccc1-c1nn(CCN)c2ccncc12 [1-(2-aminoethyl)-3-(2-methylphenyl)-1H-pyrazolo[4,3-c]pyridine]
- IC50: 870 nM

SMILES: NCCCCn1nc(-c2ccc(Cl)cc2Cl)c2cnccc21 [1-(4-aminobutyl)-3-(2,4-dichlorophenyl)-1H-pyrazolo[4,3-c]pyridine dimaleate]
- IC50: 95 nM

SMILES: NCCn1nc(-c2ccccc2Br)c2cnccc21 [Example 2A, 1-(2-aminoethyl)-3-(2-bromophenyl)-1H-pyrazolo[4,3-c]pyridine dihydrochloride]
- IC50: 1530 nM

SMILES: NCCn1nc(-c2cccc(Cl)c2Cl)c2cnccc21 [Example 2CC, 1-(2-aminoethyl)-3-(2,3-dichlorophenyl)-1H-pyrazolo[4,3-c]pyridine fumarate]
- IC50: 210 nM

SMILES: NCCCn1nc(-c2ccc(Cl)cc2)c2cnccc21 [Example 2D, 1-[3-aminopropyl]-3-(4-chlorophenyl)-1H-pyrazolo[4,3-c]pyridine dimaleate]
- IC50: 770 nM

SMILES: NCCCn1nc(-c2cccc(Cl)c2Cl)c2cnccc21 [Example 2DD, 1-(3-aminopropyl)-3-(2,3-dichlorophenyl)-1H-pyrazolo[4,3-c]pyridine fumarate]
- IC50: 410 nM

SMILES: NCCn1nc(-c2ccc(Cl)c(Cl)c2Cl)c2cnccc21 [Example 2EE, 1-(2-aminoethyl)-3-(2,3,4-trichlorophenyl)-1H-pyrazolo[4,3-c]pyridine fumarate]
- IC50: 49 nM

SMILES: NCCCn1nc(-c2ccc(Cl)c(Cl)c2Cl)c2cnccc21 [Example 2FF, 1-(3-aminopropyl)-3-(2,3,4-trichlorophenyl)-1H-pyrazolo[4,3-c]pyridine fumarate]
- IC50: 23 nM

SMILES: NCCn1nc(-c2ccc(Br)cc2)c2cnccc21 [Example 2H, 1-(2-aminoethyl)-3-(4-bromophenyl)-1H-pyrazolo[4,3-c]pyridine]
- IC50: 940 nM

SMILES: NCCCn1nc(-c2ccc(Cl)c(Cl)c2)c2cnccc21 [Example 2K, 1-(3-aminopropyl)-3-3,4-dichlorophenyl)-1H-pyrazolo[4,3-c]pyridine maleate]
- IC50: 240 nM

SMILES: NCCn1nc(-c2ccc(Cl)c(Cl)c2)c2cnccc21 [Example 2L, 1-(2-aminoethyl)-3-(3,4-dichlorophenyl)-1H-pyrazolo[4,3-c]pyridine maleate]
- IC50: 210 nM

SMILES: NCCn1nc(-c2ccc(C(F)(F)F)cc2)c2cnccc21 [Example 2Q, 1-(2-aminoethyl)-3-(4-trifluoromethylphenyl)-1H-pyrazolo[4,3-c]pyridine maleate]
- IC50: 1240 nM

SMILES: NCCn1nc(-c2ccc(Cl)cc2Cl)c2cnccc21 [Example 2S, 1-(2-amimoethyl)-3-(2,4-dichlorophenyl)-1H-pyrazolo[4,3-c]pyridine fumarate]
- IC50: 58 nM

Source: patent US5296491A, “Pyrazolo[4,3-c]pyridines and their use as serotonin reuptake inhibitors” (Hoechst-Roussel Pharmaceuticals Inc., priority 1993, dated 1994)
